Measured values as given in ChEMBL document CHEMBL2417373, “Substituted tetrahydroisoquinolines as selective antagonists for the orexin 1 receptor” (J Med Chem, 2013).
Active and inactive are the calls of the source. The rule behind the calls is not given here.

Key:
[1] = target: T1, Orexin/Hypocretin receptor type 1 (Homo sapiens) (UniProt O43613); assay: Antagonist activity at OX1 receptor (unknown origin) expressed in RD-HGA16 cells assessed as inhibition orexin A-induced calcium mobilization by fluorescence assay; format: functional, cell-based
T1 sequence (whole entry): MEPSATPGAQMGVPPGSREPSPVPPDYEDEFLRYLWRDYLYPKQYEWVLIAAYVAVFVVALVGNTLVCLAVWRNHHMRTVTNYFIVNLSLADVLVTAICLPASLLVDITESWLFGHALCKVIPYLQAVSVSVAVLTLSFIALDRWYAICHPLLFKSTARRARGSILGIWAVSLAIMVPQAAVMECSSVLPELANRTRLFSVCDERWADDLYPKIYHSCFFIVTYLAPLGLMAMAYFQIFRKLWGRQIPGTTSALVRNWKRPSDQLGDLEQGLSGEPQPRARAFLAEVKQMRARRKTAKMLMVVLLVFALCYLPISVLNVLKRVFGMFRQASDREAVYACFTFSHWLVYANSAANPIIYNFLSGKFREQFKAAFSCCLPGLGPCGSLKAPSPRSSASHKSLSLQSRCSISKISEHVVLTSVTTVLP

[2] = target: T1, Orexin/Hypocretin receptor type 1 (Homo sapiens); assay: Agonist activity at OX1 receptor (unknown origin) expressed in RD-HGA16 cells assessed as calcium mobilization at 10 uM by fluorescence assay; format: functional, cell-based
[3] = species: Homo sapiens; assay: Selectivity ratio of Ke for OX2 receptor (unknown origin) to Ke for OX1 receptor (unknown origin)
[4] = target: T2, Orexin receptor type 2 (Homo sapiens) (UniProt O43614); assay: Antagonist activity at OX2 receptor (unknown origin) expressed in RD-HGA16 cells assessed as inhibition orexin A-induced calcium mobilization at 10 uM by fluorescence assay; format: functional, cell-based
T2 sequence (whole entry): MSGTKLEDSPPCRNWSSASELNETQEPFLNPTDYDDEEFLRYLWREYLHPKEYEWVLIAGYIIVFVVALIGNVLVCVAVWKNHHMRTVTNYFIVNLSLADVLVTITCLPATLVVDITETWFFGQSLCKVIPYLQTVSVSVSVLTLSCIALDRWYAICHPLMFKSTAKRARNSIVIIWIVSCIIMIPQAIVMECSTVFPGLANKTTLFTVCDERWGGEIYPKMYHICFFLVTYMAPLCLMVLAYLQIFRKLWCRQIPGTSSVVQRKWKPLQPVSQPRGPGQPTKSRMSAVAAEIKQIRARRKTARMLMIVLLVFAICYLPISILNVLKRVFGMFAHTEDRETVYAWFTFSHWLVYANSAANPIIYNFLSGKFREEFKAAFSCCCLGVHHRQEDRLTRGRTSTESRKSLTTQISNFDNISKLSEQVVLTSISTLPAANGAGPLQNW

SMILES	Ke(app) [1]	Activity [2]	Ratio [3]	inhibition [4]
COc1ccc(CC2c3cc(OCC(F)(F)F)c(OC)cc3CCN2CC(=O)NCc2ccccn2)cc1OC (centres undefined)	22.5 nM	inactive		
CCCCCCNC(=O)Nc1ccc(CNC(=O)CN2CCc3cc(OC)c(OC)cc3C2Cc2ccc(OC)c(OC)c2)cc1 (centres undefined)	3680 nM		0.7	
CCCOc1cc2c(cc1OC)CCN(CC(=O)NCc1cccnc1)C2Cc1ccc(OC)c(OC)c1 (centres undefined)	41.9 nM	inactive		
COc1ccc(CC2c3cc(OC)c(OC)cc3CCN2CC(=O)N2CCc3ccccc3C2)cc1OC (centres undefined)	3030 nM		3	
CNC(=O)CNC(=O)CN1CCc2cc(OC)c(OC)cc2C1Cc1ccc(OC)c(OC)c1 (centres undefined)	7640 nM			< 30%
COc1ccc(CC2c3cc(OCC4CCCCC4)c(OC)cc3CCN2CC(=O)NCc2ccccc2)cc1OC (centres undefined)	> 10000 nM			< 30%
COc1ccc(CC2c3cc(OC)c(OC)cc3CCN2CC(=O)N[C@@H](C)c2ccccc2)cc1OC (single isomer, unassigned; diastereomer 1)	> 10000 nM			< 30%
COc1ccc(CC2c3cc(OC)c(OC)cc3CCN2CC(=O)Nc2cc(C)nc3ccccc23)cc1OC (centres undefined)	4510 nM			< 30%
COc1ccc(CC2c3cc(OC)c(OC)cc3CCN2CC(=O)OCc2ccccc2)cc1OC (centres undefined)	> 10000 nM			< 30%
COc1ccc(CC2c3cc(OC)c(OC)cc3CCN2CC(=O)NCc2cccnc2)cc1OC (centres undefined)	152 nM	inactive		
COc1ccc(CC2c3cc(OC)c(OC)cc3CCN2CC(=O)NCCCN(C)C)cc1OC (centres undefined)	> 10000 nM			< 30%
CCOc1cc2c(cc1OC)CCN(CC(=O)NCc1ccccn1)C2Cc1ccc(OC)c(OC)c1 (centres undefined)	87.4 nM	inactive		
COc1ccc(CC2c3cc(OCCN4CCCCC4)c(OC)cc3CCN2CC(=O)NCc2ccccc2)cc1OC (centres undefined)	8040 nM			< 30%
CCCCCC(=O)Nc1ccc(CNC(=O)CN2CCc3cc(OC)c(OC)cc3C2Cc2ccc(OC)c(OC)c2)cc1 (centres undefined)	> 10000 nM			
COc1ccc(CC2c3cc(OC)c(OC)cc3CCN2CC(=O)NCc2ccccn2)cc1OC (centres undefined)	261 nM	inactive		
COc1ccc(CC2c3cc(OC)c(OC)cc3CCN2CC(=O)N2CCCC(c3ccccc3)C2)cc1OC (centres undefined)	3530 nM		2.6	
COc1ccc(CC2c3cc(OC)c(OC)cc3CCN2CC(=O)N2CCN(c3ccccc3)CC2)cc1OC (centres undefined)	> 10000 nM			< 30%
COc1ccc(CC2c3cc(OC)c(OC)cc3CCN2CC(=O)NCc2ccncc2)cc1OC (centres undefined)	1010 nM			< 30%
COc1ccc(CC2c3cc(OC)c(OC)cc3CCN2CC(=O)NCc2ccc(N(C)C)cc2)cc1OC (centres undefined)	3230 nM			
COc1ccc(CC2c3cc(OC)c(OC)cc3CCN2CC(=O)N(C)Cc2ccccc2)cc1OC (centres undefined)	2090 nM			
COc1ccc(CC2c3cc(OC)c(OC)cc3CCN2CC(=O)N2CCC(c3ccccc3)CC2)cc1OC (centres undefined)	> 10000 nM			< 30%
COc1ccc(CC2c3cc(OC)c(OC)cc3CCN2CC(=O)NC2CC(C)Nc3ccccc32)cc1OC (centres undefined)	7170 nM			< 30%
CCOc1cc2c(cc1OC)CCN(CC(=O)NCc1cccnc1)C2Cc1ccc(OC)c(OC)c1 (centres undefined)	15.7 nM	inactive		
CCCOc1cc2c(cc1OC)CCN(CC(=O)NCc1ccccn1)C2Cc1ccc(OC)c(OC)c1 (centres undefined)	20.6 nM	inactive		
COc1ccc(CC2c3cc(OC)c(OC)cc3CCN2CC(=O)Nc2ccnc3c(F)cccc23)cc1OC (centres undefined)	4220 nM			< 30%
COc1ccc(CC2c3cc(OC)c(OC)cc3CCN2CC(=O)NCC(N)=O)cc1OC (centres undefined)	> 10000 nM			< 30%
COC(=O)CNC(=O)CN1CCc2cc(OC)c(OC)cc2C1Cc1ccc(OC)c(OC)c1 (centres undefined)	6630 nM			< 30%

Next, values leading:

Ke(app) [1]	Activity [2]	Ratio [3]	inhibition [4]	SMILES
> 10000 nM			< 30%	COc1ccc(CC2c3cc(OC)c(OC)cc3CCN2CC(=O)NCc2ccc(NC(C)=O)cc2)cc1OC (centres undefined)
315 nM	inactive			CCCCCCOc1cc2c(cc1OC)CCN(CC(=O)NCc1ccccc1)C2Cc1ccc(OC)c(OC)c1 (centres undefined)
3250 nM			< 30%	COc1ccc(CC2c3cc(OC)c(OC)cc3CCN2CC(=O)NCCc2ccccc2)cc1OC (centres undefined)
2370 nM			< 30%	COc1ccc(CC2c3cc(OC)c(OC)cc3CCN2CC(=O)NCCCc2ccccc2)cc1OC (centres undefined)
8980 nM			< 30%	COc1ccc(CC2c3cc(OC)c(OC)cc3CCN2CC(=O)Nc2cccc(-c3ccccc3)c2)cc1OC (centres undefined)
2240 nM			< 30%	COc1ccc(CC2c3cc(OC)c(OC)cc3CCN2CC(=O)Nc2ccc(-c3ccccc3)cc2)cc1OC (centres undefined)
279 nM	inactive	12.4		COc1ccc(CC2c3cc(OC)c(OC)cc3CCN2CC(=O)NCc2ccc(F)cc2)cc1OC (centres undefined)
199 nM	inactive			COc1ccc(CC2c3cc(OC)c(OC)cc3CCN2CC(=O)NCc2ccccc2)cc1OC (centres undefined)
326 nM	inactive	12		COc1ccc(CC2c3cc(OCCC(C)C)c(OC)cc3CCN2CC(=O)NCc2ccccc2)cc1OC (centres undefined)
277 nM	inactive		< 30%	COc1ccc(CC2c3cc(OCc4cccnc4)c(OC)cc3CCN2CC(=O)NCc2ccccc2)cc1OC (centres undefined)
9.4 nM	inactive			COc1ccc(CC2c3cc(OCC(F)(F)F)c(OC)cc3CCN2CC(=O)NCc2ccccc2)cc1OC (centres undefined)
402 nM	inactive		< 30%	COc1ccc(CC2c3cc(OCc4ccccc4)c(OC)cc3CCN2CC(=O)NCc2ccccc2)cc1OC (centres undefined)
17.3 nM	inactive			CCCOc1cc2c(cc1OC)CCN(CC(=O)NCc1ccccc1)C2Cc1ccc(OC)c(OC)c1 (centres undefined)
10 nM	inactive			COc1ccc(CC2c3cc(OS(=O)(=O)C(F)(F)F)c(OC)cc3CCN2CC(=O)NCc2ccccc2)cc1OC (centres undefined)
118 nM	inactive		< 30%	COc1ccc(CC2c3cc(OS(=O)(=O)c4ccc(C)cc4)c(OC)cc3CCN2CC(=O)NCc2ccccc2)cc1OC (centres undefined)
101 nM	inactive		< 30%	COc1ccc(CC2c3cc(OCc4ccccn4)c(OC)cc3CCN2CC(=O)NCc2ccccc2)cc1OC (centres undefined)
4740 nM			< 30%	COc1ccc(CC2c3cc(OCCN(C)C)c(OC)cc3CCN2CC(=O)NCc2ccccc2)cc1OC (centres undefined)
732 nM	inactive		< 30%	COc1ccc(CC2c3cc(OC)c(OC)cc3CCN2CC(=O)Nc2cccc3ccccc23)cc1OC (centres undefined)
1530 nM		3.8		COc1cc2c(cc1O)C(Cc1ccc(OC)c(OC)c1)N(CC(=O)NCc1ccccc1)CC2 (centres undefined)
30 nM	inactive			CCOc1cc2c(cc1OC)CCN(CC(=O)NCc1ccccc1)C2Cc1ccc(OC)c(OC)c1 (centres undefined)
43.5 nM	inactive			COc1ccc(CC2c3cc(OCCCCOc4ccccc4)c(OC)cc3CCN2CC(=O)NCc2ccccc2)cc1OC (centres undefined)
5740 nM			< 30%	COc1ccc(CC2c3cc(OCCCCN(C)C)c(OC)cc3CCN2CC(=O)NCc2ccccc2)cc1OC (centres undefined)
78.5 nM	inactive			CCCC(=O)Oc1cc2c(cc1OC)CCN(CC(=O)NCc1ccccc1)C2Cc1ccc(OC)c(OC)c1 (centres undefined)
